# Source: publication PMC4942611, “Promising Tools in Prostate Cancer Research: Selective Non-Steroidal Cytochrome P450 17A1 Inhibitors” (Scientific Reports, 2016)
# Where two headings read alike, the source gives them in different places.
# Key:
# [1] = molecular target: T1, CYP17A1 (Homo sapiens, UniProt P05093); test: H295R cell assay, CYP17A1 hydroxylase and lyase activity; assay type: cell-based; conditions: for IC50: 48 hours, mean over 6 to 15 measurements ± standard error
# T1 construct: endogenous in cells; host or cells: H295R
# T1 sequence (P05093 1-508): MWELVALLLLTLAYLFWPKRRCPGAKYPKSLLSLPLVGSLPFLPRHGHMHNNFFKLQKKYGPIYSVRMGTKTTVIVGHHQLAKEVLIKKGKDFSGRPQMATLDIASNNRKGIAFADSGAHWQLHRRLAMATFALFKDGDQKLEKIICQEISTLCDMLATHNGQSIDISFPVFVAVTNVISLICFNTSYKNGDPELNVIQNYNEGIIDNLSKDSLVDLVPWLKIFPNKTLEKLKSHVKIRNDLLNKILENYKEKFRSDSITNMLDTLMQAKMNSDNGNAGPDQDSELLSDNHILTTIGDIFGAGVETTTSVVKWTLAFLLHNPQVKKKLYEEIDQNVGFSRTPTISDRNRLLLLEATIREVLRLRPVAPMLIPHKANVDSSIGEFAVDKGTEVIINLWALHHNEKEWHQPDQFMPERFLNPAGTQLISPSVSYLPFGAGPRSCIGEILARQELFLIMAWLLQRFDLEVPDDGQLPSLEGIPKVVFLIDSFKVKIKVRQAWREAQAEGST
# Method: (§1) The H295R steroid hormone synthesis assay was performed according to the OECD validation guideline. Cells were cultured in DMEM/F12 media supplemented with 1% ITS-premix and 2.5% Nu-serum at 37 °C with a 5% CO2 atmosphere. The cells were only used for experiments between passage […]. During exposure experiments, cells were grown in 24 well plates with a density of 3 × 10^5 cells/mL. […] To avoid interference from low levels of steroid hormones present in the Nu-serum, the exposure experiment was conducted with serum-free media. Each compound was tested at a minimum of seven concentration levels using three or more replicates and the experiment was repeated on two different days (n = 6–15). On each test plate a solvent control (SC) (medium with 0.1% DMSO) was included in triplicate and the maximal concentration of DMSO in the cell medium was 0.1%[49]. After 48 hours of incubation in presence of the test compounds, 950 μL of the medium was carefully removed and internal standards (50 μl of 0.1 μg/μl solution containing deuterated steroid analogues) were added. Samples were stored at −20 °C for later analysis.
# Steroid extraction and clean-up were performed by double protein precipitation. First, 900 μL of cold acetonitrile were added to the samples, which were then vortexed and centrifuged at ~9500 × g for 10 minutes. Second, 900 μL cold methanol was added to the supernatant and the mixture was vortexed and centrifuged at 1500 × g for 10 minutes. Finally, the supernatant was collected and concentrated to ~1 mL under a gentle stream of nitrogen at 60 °C.
# For on-line solid phase extraction (SPE) of steroids, a total of 100 μL was injected on a binary 1290 Agilent Infinity Series system and a binary 1100 Agilent HPLC pump were used in combination (Agilent Technologies, Palo Alto, CA, USA). For online clean-up, a C18 enrichment column (μbondapak® C18, 3.9 × 20 mm, 10 μm, Waters) was used. The enrichment column was connected to the autosampler through the TTC switching valve (two positions, 6 ports). Between the autosampler and the TTC switching valve a 0.3 μm in-line filter (1290 infinity in-line filter, Agilent) was installed. Separation of steroid hormones was performed using a C18 analytical column (Kinetex, 2.6 μm C18 100 Å, 75 × 2.1 mm, Phenomenex, USA). An isocratic flow of 1 mL/min H2O:methanol:formic acid at 90:10:0.1 (v/v/v) was generated by the 1100 pump which was connected to the autosampler. The 1290 pump performed a gradient elution with a flow rate of 0.3 mL which was connected to the TTC switching valve. Mobile phase A and B were composed of H2O with 0.1% formic acid (v/v) and pure methanol, respectively. The elution gradient was maintained at 10% B for the first 2 min, changed to 10.0–30.0% from 2.0 to 2.2 min, 30.0–60.0% from 2.2 to 8.0 min, maintained at 60.0% from 8.0 to 10.0 min, increased to 60.0–85.0% from 10.0 to 12.30 min, 85.0–99.5% from 12.3 to 12.5 min and held at 99.5% from 12.5 to 14.8 min, before re-equilibrating the column until 16 minutes.
# For detection, an AB SCIEX 4500 QTRAP mass spectrometer (Applied Biosystems, Foster City, CA, USA) equipped with an atmospheric pressure chemical ionization (APCI) Turbo V source was used. Multiple reaction monitoring (MRM) was performed in positive mode during the analysis with a targeted scan time of 0.8 sec. Nitrogen was applied as curtain, collision, and ion source gases.
# [2] = Precipitation of compound in H295R exposure medium; assay type: physicochemical; conditions: H295R assay medium, 0.1% DMSO
# Method: This cellular assay was also used to evaluate inhibitor selectivity.
# as §1
# [3] = system: H295R cells; test: Cell viability, resazurin assay; assay type: cell-based, human
# From the text: Cell viability was confirmed with the resazurin assay, as described by Nielsen et al.[50].
# [4] = based on conversion of 17-OH-PRE into DHEA, read-out: IC50 lyase, H295R system
# [5] = based on conversion of PRE into 17-OH-PRE, read-out: IC50 hydroxylase, H295R system
compound,measurement,setting,value
Cc1ccc(-c2csc(-c3cccnc3)n2)c(C)c1 [Compound 1],IC50,[1]; [4],94 ± 30 nM
same,IC50,[1]; [5],830 ± 80 nM
same,Concentration at which precipitation was observed,[2],around 10 μM
CCCn1nnc2cc(-c3cc(-c4ccncc4)c(C#N)c(N)n3)ccc21 [Compound 2],IC50,[1]; [4],7.4 ± 0.1 nM
same,IC50,[1]; [5],52 ± 4 nM
same,Concentration at which precipitation was observed,[2],60 µM
"C[C@]12CC[C@H](O)CC1=CC[C@@H]1[C@@H]2CC[C@]2(C)C(c3cccnc3)=CC[C@@H]12 [abiraterone, reference compound]",Inhibitor concentrations at which CYP17A1 is inhibited (only CYP17A1 affected),[1]; H295R cells,2.5 to 10 nM
same,IC50,[1]; [5],9.4 ± 0.3 nM
same,Concentration at which cells were not viable,[3],10 µM
